{"source": "ChEMBL document CHEMBL5357085", "about": "“Synthesis and Evaluation of Natural and Unnatural Tetrahydrocannabiorcol for Its Potential Use in Neuropathologies” (J Nat Prod, 2024)", "key": {"[1]": {"experiment": "Upregulation of BDNF expression in human SH-SY5Y cells at 10 uM incubated for 2 hrs by ELISA", "format": "functional"}, "SH-SY5Y [2]": {"system": "SH-SY5Y", "experiment": "Cytotoxicity against human SH-SY5Y cells assessed as reduction in cell viability at 1 to 50 uM measured after 48 hrs by MTT assay", "format": "toxicity, cell-based", "details": "dose 1-50 µM"}, "SH-SY5Y [3]": {"system": "SH-SY5Y", "experiment": "Neuroprotective activity against corticosterone-induced cytotoxicity in human SH-SY5Y cells assessed as rescue of cell viability at 10 uM preincubated with compound for 72 hrs followed by corticosterone stimulation and measured after 48 hrs by MTT assay relative to control", "format": "functional", "details": "time 120 hrs"}, "SH-SY5Y [4]": {"system": "SH-SY5Y", "experiment": "Neuroprotective activity against corticosterone-induced cytotoxicity in human SH-SY5Y cells assessed as rescue of cell viability at 10 uM preincubated with compound for 48 hrs followed by corticosterone stimulation and measured after 48 hrs by MTT assay relative to control", "format": "functional", "details": "time 96 hrs"}, "SH-SY5Y [5]": {"system": "SH-SY5Y", "experiment": "Neuroprotective activity against corticosterone-induced cytotoxicity in human SH-SY5Y cells assessed as BDNF concentration at 10 uM preincubated with compound for 2 hrs followed by corticosterone addition and measured 2 hrs after replacement with fresh media by ELISA (reference value: 5 pg/ml)", "format": "functional"}, "SH-SY5Y [6]": {"system": "SH-SY5Y", "experiment": "Neuroprotective activity against corticosterone-induced cytotoxicity in human SH-SY5Y cells assessed as rescue of cell viability at 10 uM preincubated with compound for 24 hrs followed by corticosterone stimulation and measured after 48 hrs by MTT assay (reference value: 41%)", "format": "functional", "details": "time 72 hrs"}, "SH-SY5Y [7]": {"system": "SH-SY5Y", "experiment": "Neuroprotective activity against corticosterone-induced cytotoxicity in human SH-SY5Y cells assessed as rescue of cell viability at 10 uM preincubated with compound for 96 hrs followed by corticosterone stimulation and measured after 48 hrs by MTT assay relative to control", "format": "functional", "details": "time 144 hrs"}, "SH-SY5Y [8]": {"system": "SH-SY5Y", "experiment": "Cytotoxicity against human SH-SY5Y cells assessed as reduction in cell viability at 10 uM measured at 24 to 96 hrs by MTT assay", "format": "toxicity, cell-based", "details": "time 24-96 hrs"}, "SH-SY5Y [9]": {"system": "SH-SY5Y", "experiment": "Neuroprotective activity against corticosterone-induced cytotoxicity in human SH-SY5Y cells assessed as rescue of cell viability at 5 uM preincubated with compound for 24 hrs followed by corticosterone stimulation and measured after 48 hrs by MTT assay (reference value: 41%)", "format": "functional", "details": "time 72 hrs"}, "SH-SY5Y [10]": {"system": "SH-SY5Y", "experiment": "Neuroprotective activity against corticosterone-induced cytotoxicity in human SH-SY5Y cells assessed as rescue of cell viability at 20 uM preincubated with compound for 24 hrs followed by corticosterone stimulation and measured after 48 hrs by MTT assay (reference value: 41%)", "format": "functional", "details": "time 72 hrs"}, "SH-SY5Y [11]": {"system": "SH-SY5Y", "experiment": "Neuroprotective activity against corticosterone-induced cytotoxicity in human SH-SY5Y cells assessed as […] at 10 uM preincubated with compound for 2 hrs followed by corticosterone addition and measured 2 hrs after replacement with fresh media by ELISA", "format": "functional"}, "SH-SY5Y [12]": {"system": "SH-SY5Y", "experiment": "Neuroprotective activity against corticosterone-induced cytotoxicity in human SH-SY5Y cells assessed as rescue of cell viability at 10 uM preincubated with compound for 24 hrs followed by corticosterone stimulation and measured after 48 hrs by MTT assay relative to control", "format": "functional", "details": "time 72 hrs"}, "[13]": {"experiment": "Downregulation of corticosterone release in human SH-SY5Y cells at 10 uM incubated for 2 hrs by ELISA", "format": "functional"}, "SH-SY5Y [14]": {"system": "SH-SY5Y", "experiment": "Cytotoxicity against human SH-SY5Y cells assessed as reduction in cell viability at 20 uM measured after 48 hrs by MTT assay", "format": "toxicity, cell-based"}, "SH-SY5Y [15]": {"system": "SH-SY5Y", "experiment": "Upregulation of BDNF expression in human SH-SY5Y cells at 20 uM incubated for 2 hrs by ELISA", "format": "functional, cell-based"}, "SH-SY5Y [16]": {"system": "SH-SY5Y", "experiment": "Neuroprotective activity against corticosterone-induced cytotoxicity in human SH-SY5Y cells assessed as rescue of BDNF expression at 20 uM preincubated with compound for 2 hrs followed by corticosterone addition and measured 2 hrs after replacement with fresh media by ELISA (reference value: 5 pg/ml)", "format": "functional, cell-based"}, "SH-SY5Y [17]": {"system": "SH-SY5Y", "experiment": "Inhibition of corticosterone release in human SH-SY5Y cells at 20 uM incubated for 2 hrs by ELISA", "format": "functional, cell-based"}, "SH-SY5Y [18]": {"system": "SH-SY5Y", "experiment": "Neuroprotective activity against corticosterone-induced cytotoxicity in human SH-SY5Y cells assessed as rescue of cell viability at 20 uM preincubated with compound for 24 hrs followed by corticosterone stimulation and measured after 48 hrs by MTT assay", "format": "functional, cell-based", "details": "time 72.0 hrs"}, "SH-SY5Y [19]": {"system": "SH-SY5Y", "experiment": "Neuroprotective activity against corticosterone-induced cytotoxicity in human SH-SY5Y cells assessed as […] at 20 uM preincubated with compound for 2 hrs followed by corticosterone addition and measured 2 hrs after replacement with fresh media by ELISA", "format": "functional, cell-based"}, "[20]": {"experiment": "Upregulation of BDNF expression in human SH-SY5Y cells at 5 nM incubated for 2 hrs by ELISA", "format": "functional"}, "SH-SY5Y [21]": {"system": "SH-SY5Y", "experiment": "Neuroprotective activity against corticosterone-induced cytotoxicity in human SH-SY5Y cells assessed as BDNF concentration at 5 nM preincubated with compound for 2 hrs followed by corticosterone addition and measured 2 hrs after replacement with fresh media by ELISA (reference value: 5 pg/ml)", "format": "functional"}, "SH-SY5Y [22]": {"system": "SH-SY5Y", "experiment": "Cytotoxicity against human SH-SY5Y cells assessed as reduction in cell viability at 5 nM measured after 48 hrs by MTT assay", "format": "toxicity, cell-based", "details": "0.005 µM"}, "SH-SY5Y [23]": {"system": "SH-SY5Y", "experiment": "Neuroprotective activity against corticosterone-induced cytotoxicity in human SH-SY5Y cells assessed as rescue of cell viability at 5 nM preincubated with compound for 24 hrs followed by corticosterone stimulation and measured after 48 hrs by MTT assay (reference value: 41%)", "format": "functional", "details": "time 72 hrs"}}, "note": "Calls of active or inactive are those of the source. The calls are words filed in the database; no cut-off is given here."}
{"smiles": "CC1=C[C@@H]2c3c(O)cc(C)cc3OC(C)(C)[C@H]2CC1", "values": [{"measurement": "Activity", "setting": "[1]", "result": 29, "unit": "pg/mL"}, {"measurement": "Activity", "setting": "SH-SY5Y [2]", "result": "Non-Toxic"}, {"measurement": "Activity", "setting": "SH-SY5Y [3]", "result": 102, "unit": "%"}, {"measurement": "Activity", "setting": "SH-SY5Y [4]", "result": 98, "unit": "%"}, {"measurement": "Activity", "setting": "SH-SY5Y [5]", "result": 25, "unit": "pg/mL"}, {"measurement": "Activity", "setting": "SH-SY5Y [6]", "result": 99, "unit": "%"}, {"measurement": "Activity", "setting": "SH-SY5Y [7]", "result": 104, "unit": "%"}, {"measurement": "Activity", "setting": "SH-SY5Y [8]", "result": "Non-Toxic"}, {"measurement": "Activity", "setting": "SH-SY5Y [9]", "result": 83, "unit": "%"}, {"measurement": "Activity", "setting": "SH-SY5Y [10]", "result": 101, "unit": "%"}, {"measurement": "Activity", "setting": "SH-SY5Y [11]", "result": 5, "unit": "pg/mL"}, {"measurement": "Activity", "setting": "SH-SY5Y [12]", "result": 92, "unit": "%"}, {"measurement": "Activity", "setting": "[13]", "result": 0.43, "unit": "pg/mL"}]}
{"smiles": "C=C(C)[C@@H]1CCC(C)=C[C@H]1c1c(O)cc(CCCCC)cc1O", "note": "[CANNABIDIOL]", "values": [{"measurement": "Activity", "setting": "SH-SY5Y [14]", "result": "Non-Toxic"}, {"measurement": "Activity", "setting": "SH-SY5Y [15]", "result": "inactive"}, {"measurement": "Activity", "setting": "SH-SY5Y [16]", "result": "inactive"}, {"measurement": "inhibition", "setting": "SH-SY5Y [17]", "result": "inactive"}, {"measurement": "Activity", "setting": "SH-SY5Y [18]", "result": "Active"}, {"measurement": "Activity", "setting": "SH-SY5Y [19]", "result": "inactive"}]}
{"smiles": "CC1=C[C@H]2c3c(O)cc(C)cc3OC(C)(C)[C@@H]2CC1", "values": [{"measurement": "Activity", "setting": "[1]", "result": 21, "unit": "pg/mL"}, {"measurement": "Activity", "setting": "SH-SY5Y [2]", "result": "Non-Toxic"}, {"measurement": "Activity", "setting": "SH-SY5Y [3]", "result": 95, "unit": "%"}, {"measurement": "Activity", "setting": "SH-SY5Y [4]", "result": 90, "unit": "%"}, {"measurement": "Activity", "setting": "SH-SY5Y [5]", "result": 18, "unit": "pg/mL"}, {"measurement": "Activity", "setting": "SH-SY5Y [6]", "result": 96, "unit": "%"}, {"measurement": "Activity", "setting": "SH-SY5Y [7]", "result": 99, "unit": "%"}, {"measurement": "Activity", "setting": "SH-SY5Y [8]", "result": "Non-Toxic"}, {"measurement": "Activity", "setting": "SH-SY5Y [9]", "result": 79, "unit": "%"}, {"measurement": "Activity", "setting": "SH-SY5Y [10]", "result": 97, "unit": "%"}, {"measurement": "Activity", "setting": "SH-SY5Y [11]", "result": 7, "unit": "pg/mL"}, {"measurement": "Activity", "setting": "SH-SY5Y [12]", "result": 89, "unit": "%"}, {"measurement": "Activity", "setting": "[13]", "result": 0.22, "unit": "pg/mL"}]}
{"smiles": "O=c1cc(-c2ccccc2)oc2c(O)c(O)ccc12", "note": "[7,8-DIHYDROXYFLAVONE]", "values": [{"measurement": "Activity", "setting": "[20]", "result": 19, "unit": "pg/mL"}, {"measurement": "Activity", "setting": "SH-SY5Y [21]", "result": 21, "unit": "pg/mL"}, {"measurement": "Activity", "setting": "SH-SY5Y [22]", "result": "Non-Toxic"}, {"measurement": "Activity", "setting": "SH-SY5Y [23]", "result": 86, "unit": "%"}]}
